Measured values from patent US7199131B2, “Sulfonamide and sulfamide substituted imidazoquinolines” (3M Innovative Properties Company, priority 2001, dated 2007).

Columns and labels:
[1] = tested on: tumor necrosis factor (α); assay: Cytokine Induction in Human Cells: tumor necrosis factor (α) secreted by PBMCs, ELISA; format: cell-based; conditions: PBMC, incubated 18 to 24 hours, lowest concentration found to induce tumor necrosis factor
Text: (§1) An in vitro human blood cell system was used to assess cytokine induction by compounds of the invention. Activity is based on the measurement of interferon and tumor necrosis factor (α) (IFN and TNF, respectively) secreted into culture media as described by Testerman et. al. In “Cytokine Induction by the Immunomodulators Imiquimod and S-27609”, Journal of Leukocyte Biology, 58, 365–372 (September, 1995).
(§2) Whole blood is collected by venipuncture into EDTA vacutainer tubes from healthy human donors. Peripheral blood mononuclear cells (PBMCs) are separated from whole blood by density gradient centrifugation using Histopaque®-1077 (Sigma Chemicals, St. Louis, Mo.). The PBMCs are suspended at 3–4×10^6 cells/mL in RPMI 1640 medium containing 10% fetal bovine serum, 2 mM L-glutamine and 1% penicillin/streptomycin solution (RPMI complete). The PBMC suspension is added to 48 well flat bottom sterile tissue culture plates (Costar, Cambridge, Mass. or Becton Dickinson Labware, Lincoln Park, N.J.) containing an equal volume of RPMI complete media containing test compound.
(§3) The compounds are solubilized in dimethyl sulfoxide (DMSO). The DMSO concentration should not exceed a final concentration of 1% for addition to the culture wells.
(§4) The solution of test compound is added at 60 μM to the first well containing RPMI complete and serial (three fold or ten fold) dilutions are made. The PBMC suspension is then added to the wells in an equal volume, bringing the test compound concentrations to the desired range. The final concentration of PBMC suspension is 1.5–2×10^6 cells/mL. The plates are covered with sterile plastic lids, mixed gently and then incubated for 18 to 24 hours at 37° C. in a 5% carbon dioxide atmosphere.
(§5) Following incubation the plates are centrifuged for 5–10 minutes at 1000 rpm (˜200×g) at 4° C. The cell culture supernatant is removed with a sterile polypropylene pipette and transferred to sterile polypropylene tubes. Samples are maintained at −30 to −70° C. until analysis. The samples are analyzed for interferon (α) and tumor necrosis factor (α) by ELISA
Tumor necrosis factor (α) (TNF) concentration is determined using ELISA kits available from Genzyme, Cambridge, Mass.; R&D Systems, Minneapolis, Minn.; or Pharmingen, San Diego, Calif.
(§6) The table below lists the lowest concentration found to induce interferon and the lowest concentration found to induce tumor necrosis factor for each compound.

[2] = tested on: interferon (α); assay: Cytokine Induction in Human Cells: interferon (α) secreted by PBMCs, ELISA; format: cell-based; conditions: PBMC, incubated 18 to 24 hours, lowest concentration found to induce interferon
Text: as §1, §2, §3, §4, §5
Interferon (α) concentration is determined by ELISA using a Human Multi-Species kit from PBL Biomedical Laboratories, New Brunswick, N.J.
as §6

| SMILES | melting point [°C] | minimal effective concentration [1] [µM] | minimal effective concentration [2] [µM] |
| --- | --- | --- | --- |
| CCCCc1nc2c(N)nc3ccccc3c2n1CCCNS(=O)(=O)c1cccc2c(N(C)C)cccc12 [Example 245, N-[3-(4-amino-2-butyl-1H-imidazo[4,5-c]quinolin-1-yl)propyl]-5-(dimethylamino)naphthalene-1-sulfonamide] | 216.5 to 217.5 | > 30 | 3.33 |
| CCCCc1nc2c(N)nc3ccccc3c2n1CCCNS(=O)(=O)c1ccc(C)cc1 [Example 246, N-[3-(4-amino-2-butyl-1H-imidazo[4,5-c]quinolin-1-yl)propyl]-4-methylbenzenesulfonamide] | 197 to 198.5 | 3.33 | 1.11 |
| COCCc1nc2c(N)nc3ccccc3c2n1CCCNS(C)(=O)=O [Example 247, N-{3-[4-amino-2-(2-methoxyethyl)-1H-imidazo[4,5-c]quinolin-1-yl]propyl}methanesulfonamide] | 193 to 194 | 0.01 | 0.01 |
| CCCCc1nc2c(N)nc3ccccc3c2n1CCCCCCCCNS(=O)(=O)c1ccccc1 [Example 248, N-[8-(4-amino-2-butyl-1H-imidazo[4,5-c]quinolin-1-yl)octyl]benzenesulfonamide] | 143 to 144 | 0.01 | 0.12 |
| COCCc1nc2c(N)nc3ccccc3c2n1CCCNS(=O)(=O)c1ccccc1 [Example 249, N-(3-[4-amino-2-(2-methoxyethyl)-1H-imidazo[4,5-c]quinolin-1-yl]propyl)benzenesulfonamide] | 149 to 151 | 1.11 | 0.01 |
| CCOCc1nc2c(N)nc3ccccc3c2n1CCCNS(C)(=O)=O [Example 255, N-{3-[4-amino-2-(ethoxymethyl)-1H-imidazo[4,5-c]quinolin-1-yl]propyl}methanesulfonamide] | 208.2 to 209.6 | 3.33 | 0.12 |
| COCCc1nc2c(N)nc3c(c2n1CCCNS(C)(=O)=O)CCCC3 [Example 259, N-{3-[4-amino-2-(2-methoxyethyl)-6,7,8,9-tetrahydro-1H-imidazo[4,5-c]quinolin-1-yl]propyl}methanesulfonamide] | 150 to 152 | 10 | 0.01 |
| CS(=O)(=O)NCCCCn1c(CCCOc2ccccc2)nc2c(N)nc3ccccc3c21 [Example 262, N-{4-[4-amino-2-(3-phenoxypropyl)-1H-imidazo[4,5-c]quinolin-1-yl]butyl}methanesulfonamide] | 156.4 to 157.1 | 10 | > 30 |
| CCCCc1nc2c(N)nc3ccccc3c2n1CCNS(=O)(=O)c1ccc(C)cc1 [Example 264, N-[2-(4-amino-2-butyl-1H-imidazo[4,5-c]quinolin-1-yl)ethyl]-4-methylbenzenesulfonamide] | 187 to 188 | 1.11 | 1.11 |

Further lines, with some results ahead:

| melting point [°C] | SMILES | minimal effective concentration [1] [µM] | minimal effective concentration [2] [µM] |
| --- | --- | --- | --- |
| 121 to 124 | CCCCc1nc2c(N)nc3ccccc3c2n1CCCCCCCCNS(C)(=O)=O [Example 244, N-[8-(4-amino-2-butyl-1H-imidazo[4,5-c]quinolin-1-yl)octyl]methanesulfonamide] | 0.01 | 0.01 |
| 153 to 155 | CS(=O)(=O)NCCCCCCCCn1cnc2c(N)nc3ccccc3c21 [Example 252, N-[8-(4-amino-1H-imidazo[4,5-c]quinolin-1-yl)octyl]methanesulfonamide] | 1.11 | 0.37 |
| 189 to 191 | COCCc1nc2c(N)nc3ccccc3c2n1CCCNS(=O)(=O)c1ccc(C)cc1 [Example 253, N-{3-[4-amino-2-(2-methoxyethyl)-1H-imidazo[4,5-c]quinolin-1-yl]propyl}-4-methylbenzenesulfonamide] | 0.12 | 0.04 |
| 167 to 167.8 | CCCCCc1nc2c(N)nc3c(c2n1CCCCNS(C)(=O)=O)CCCC3 [Example 254, N-[4-(4-amino-2-pentyl-6,7,8,9-tetrahydro-1H-imidazo[4,5-c]quinolin-1-yl)butyl]methanesulfonamide] | 1.11 | 0.01 |
| 204 to 206 | COCCc1nc2c(N)nc3ccccc3c2n1CC(C)(C)CNS(C)(=O)=O [Example 256, N-{3-[4-amino-2-(2-methoxyethyl)-1H-imidazo[4,5-c]quinolin-1-yl]-2,2-dimethylpropyl}methanesulfonamide] | 0.04 | 0.01 |
| 210 to 215 | COCCc1nc2c(N)nc3ccccc3c2n1CCCNS(=O)(=O)c1cccc2c(N(C)C)cccc12 [Example 257, N-{3-[4-amino-2-(2-methoxyethyl)-1H-imidazo[4,5-c]quinolin-1-yl]propyl}-5-(dimethylamino)naphthalene-1-sulfonamide] | 3.33 | 1.11 |
| 236 to 238 | Cc1nc2c(N)nc3ccccc3c2n1CCCNS(C)(=O)=O [Example 258, N-[3-(4-amino-2-methyl-1H-imidazo[4,5-c]quinolin-1-yl)propyl]methanesulfonamide] | 10 | 0.37 |
| 212 to 214 | CCOCc1nc2c(N)nc3c(c2n1CCCNS(C)(=O)=O)CCCC3 [Example 260, N-{3-[4-amino-2-(ethoxymethyl)-6,7,8,9-tetrahydro-1H-imidazo[4,5-c]quinolin-1-yl]propyl}methanesulfonamide] | 0.37 | 0.01 |
| 176 to 178 | CS(=O)(=O)NCCCn1c(CCCOc2ccccc2)nc2c(N)nc3ccccc3c21 [Example 261, N-{3-[4-amino-2-(3-phenoxypropyl)-1H-imidazo[4,5-c]quinolin-1-yl]propyl}methanesulfonamide] | 10 | > 30 |
| 210 to 211 | CCCCc1nc2c(N)nc3ccccc3c2n1CCNS(C)(=O)=O [Example 265, N-[2-(4-amino-2-butyl-1H-imidazo[4,5-c]quinolin-1-yl)ethyl]methanesulfonamide] | 0.04 | 0.01 |
| 173 to 176 | CCCCc1nc2c(N)nc3ccccc3c2n1CCCCN1CCCS1(=O)=O [Example 267, 2-butyl-1-[4-(1,1-dioxidoisothiazolidin-2-yl)butyl]-1H-imidazo[4,5-c]quinolin-4-amine] | 0.12 | 0.01 |
